In patent US7960415B2, “Caspase inhibitors and uses thereof” (Vertex Pharmaceutical Incoporated, priority 2003, dated 2011):
pIC50: −log10 of the molar value.

Key:
[1] = tested on: IL-1β secretion from human whole blood; assay: Inhibition of IL-1β secretion from whole blood; assay type: cell-based; settings: human whole blood diluted 1:2, LPS 5 ng/ml, 18 hours, ELISA
Protocol: Human blood is freshly drawn from healthy donors and diluted 1:2 in PBS. To 500 μl of diluted blood […] of prediluted test compound in RPMI medium and […] LPS (5 ng/ml final concentration on the plate) are added (LPS, Serotype 0111:B4, Sigma L3012). After stimulation for 18 hours supernatants are collected and assayed for IL-1β levels using the appropriate ELISA kit (R&D systems).

[2] = tested on: rat cortical neurons; assay: Hypoxia-induced apoptosis of rat cortical neurons; assay type: cell-based, Wistar rat; settings: Cortical neurone, 95% N2/5% CO2, Cell Death Detection ELISA (DNA fragmentation)
Protocol: Cortical neurons are dissociated from Wistar rat embryos (E17) by a modification of the procedure of Rogers et al. 1997, Brain Res. Bulletin, 44:131. Briefly, cerebral cortices are isolated aseptically from 15-20 Wistar rat embryos. A cell suspension is prepared by mincing the cerebral cortices and digesting them with papain. Cells are washed with ovomucoid enzyme inhibitor and DNaseI and plated onto Poly-D lysine coated plates in high glucose DMEM containing 10% heat-inactivated fetal calf serum, L-glutamine, penicillin and streptomycin. The yield of neurons is […] per embryo and they are 80-90% viable as assessed by Trypan blue exclusion.
The neurons are cultured in complete medium at 37° C. in a normal atmosphere for 48 hours prior to the hypoxia experiments. For hypoxia, the normal cell medium is replaced by oxygen-depleted serum-free medium. Cells are incubated in an atmosphere of 95% N2/5% CO2 for various lengths of time. Compounds are dissolved in DMSO at 100 mM then diluted in medium and added to the culture from time=0. The level of apoptosis is measured using a Cell Death Detection ELISA kit (Roche) which detects DNA fragmentation. Plates are read at 405 nm. Controls included cells cultured in aerobic conditions in serum-containing medium (+serum) and cells cultured in aerobic conditions in serum-deprived medium (−serum).

[3] = tested on: Jurkat E6.1 cells; assay: Anti-Fas induced apoptosis assay; assay type: cell-based; settings: Homo sapiens, anti-Fas antibody CH-11 10 ng/ml, 16-18 hrs, DNA fragmentation
Text: Cellular apoptosis may be induced by the binding of Fas ligand (FasL) to its receptor, CD95 (Fas). CD95 is one of a family of related receptors, known as death receptors, which can trigger apoptosis in cells via activation of the caspase enzyme cascade. The process is initiated by the binding of the adapter molecule FADD/MORT-1 to the cytoplasmic domain of the CD-95 receptor-ligand complex. Caspase-8 then binds FADD and becomes activated, initiating a cascade of events that involve the activation of downstream caspases and subsequent cellular apoptosis. Apoptosis can also be induced in cells expressing CD95 e.g., the Jurkat E6.1 T cell lymphoma cell line, using an antibody, rather than FasL, to crosslink the cell surface CD95. Anti-Fas-induced apoptosis is also triggered via the activation of caspase-8. This provides the basis of a cell based assay to screen compounds for inhibition of the caspase-8-mediated apoptotic pathway.
Jurkat E6.1 cells are cultured in complete medium consisting of RPMI-1640 (Sigma No)+10% foetal calf serum (Gibco BRL No. 10099-141)+2 mM L-glutamine (Sigma No. G-7513). The cells are harvested in log phase of growth. 100 ml of cells at 5-8×10^5 cells/ml are transferred to sterile 50 ml Falcon centrifuge tubes and centrifuged for 5 minutes at 100×g at room temperature. The supernatant is removed and the combined cell pellets resuspended in 25 ml of complete medium. The cells are counted and the density adjusted to 2×10^6 cells/ml with complete medium.
The test compound is dissolved in dimethyl sulfoxide (DMSO)(Sigma No. D-2650) to give a 100 mM stock solution. This is diluted to 400 μM in complete medium, then serially diluted in a 96-well plate prior to addition to the cell assay plate.
100 μl of the cell suspension ([…]) is added to each well of a sterile 96-well round-bottomed cluster plate (Costar No. 3790). 50 μl of compound solution at the appropriate dilution and 50 μl of anti-Fas antibody, clone CH-11 (Upstate, Cat No. 1 544 675) at a final concentration of 10 ng/ml, are added to the wells. Control wells are set up minus antibody and minus compound but with a serial dilution of DMSO as vehicle control. The plates are incubated for 16-18 hrs at 37° C. in 5% CO2 and 95% humidity.
Apoptosis of the cells is measured by the quantitation of DNA fragmentation using a ‘Cell Death Detection Assay’ from Roche diagnostics, No. 1544 675. After incubation for 16-18 hrs the assay plates are centrifuged at 100×g at room temperature for 5 minutes. 150 μl of the supernatant are removed and replaced by 150 μl of fresh complete medium. The cells are then harvested and 200 μl of the lysis buffer supplied in the assay kit are added to each well. The cells are triturated to ensure complete lysis and incubated for 30 minutes at 4° C. The plates are then centrifuged at 1900×g for 10 minutes and the supernatants diluted 1:20 in the incubation buffer provided. 100 μl of this solution is then assayed according to the manufacturer's instructions supplied with the kit. OD405 nm is measured 20 minutes after addition of the final substrate in a SPECTRAmax Plus plate reader (Molecular Devices). OD405 nm is plotted versus compound concentration and the IC50 values for the compounds are calculated using the curve-fitting program SOFTmax Pro (Molecular Devices) using the four parameter fit option.

SMILES | pIC50 [1] | pIC50 [2] | pIC50 [3]
CC[C@@H](C(=O)N[C@@H](CC(=O)O)C(=O)COc1c(F)c(F)cc(F)c1F)n1cccc(NC(=O)C2CC2)c1=O [Compound 4, (S,S)-3-{2-[3-(Cyclopropanecarbonyl-amino)-2-oxo-2H-pyridin-1-yl]-butyrylamino}-4-oxo-5-(2,3,5,6-tetrafluoro-phenoxy)-pentanoic acid] | 5.30 to 6.30 | 5.00 to 6.00 | > 6.30
CC[C@@H](C(=O)N[C@@H](CC(=O)O)C(=O)COc1c(F)c(F)cc(F)c1F)n1cccc(NC(=O)c2ccco2)c1=O [Compound 7, (S,S)-3-(2-{3-[(Furan-2-carbonyl)-amino]-2-oxo-2H-pyridin-1-yl}-butyrylamino)-4-oxo-5-(2,3,5,6-tetrafluoro-phenoxy)-pentanoic acid] | > 6.30 | 5.00 to 6.00 | > 6.30
CC[C@@H](C(=O)NC(CC(=O)O)C(=O)CF)n1cccc(NC(=O)c2c(Cl)cccc2Cl)c1=O (stereo partly drawn) [Compound 31, (S)-3-{2-[3-(2,6-Dichloro-benzoylamino)-2-oxo-2H-pyridin-1-yl]-butyrylamino}-5-fluoro-4-oxo-pentanoic acid] |  | 5.00 to 6.00 | > 6.30
CC[C@@H](C(=O)NC(CC(=O)O)C(=O)CF)n1cc(C)cc(NC(=O)Cc2ccccc2)c1=O (stereo partly drawn) [Compound 37, (S)-5-Fluoro-3-[2-(5-methyl-2-oxo-3-phenylacetylamino-2H-pyridin-1-yl)-butyrylamino]-4-oxo-pentanoic acid] |  | 5.00 to 6.00 | > 6.30
CC[C@@H](C(=O)NC(CC(=O)O)C(=O)CF)n1cccc(NC(=O)c2ccccc2)c1=O (stereo partly drawn) [Compound 30, (S)-3-[2-(3-Benzoylamino-2-oxo-2H-pyridin-1-yl)-butyrylamino]-5-fluoro-4-oxo-pentanoic acid] |  | 5.00 to 6.00 | > 6.30
CC[C@@H](C(=O)N[C@@H](CC(=O)O)C(=O)COc1c(F)c(F)cc(F)c1F)n1cccc(NC(C)=O)c1=O [Compound 1, (S,S)-3-[2-(3-Acetylamino-2-oxo-2H-pyridin-1-yl)-butyrylamino]-4-oxo-5-(2,3,5,6-tetrafluoro-phenoxy)-pentanoic acid] | > 6.30 | 5.00 to 6.00 | > 6.30
CCC(=O)Nc1cccn([C@@H](CC(C)C)C(=O)NC(CC(=O)O)C(=O)CF)c1=O (stereo partly drawn) [Compound 36, (S)-5-Fluoro-3-[4-methyl-2-(2-oxo-3-propionylamino-2H-pyridin-1-yl)-pentanoylamino]-4-oxo-pentanoic acid] | 5.30 to 6.30 | 5.00 to 6.00 | 5.70 to 6.30
CCC[C@@H](C(=O)NC(CC(=O)O)C(=O)CF)n1cccc(NC(=O)CC)c1=O (stereo partly drawn) [Compound 35, (S)-5-Fluoro-4-oxo-3-[2-(2-oxo-3-propionylamino-2H-pyridin-1-yl)-pentanoylamino]-pentanoic acid] |  | 5.00 to 6.00 | > 6.30
C[C@@H](C(=O)NC(CC(=O)O)C(=O)CF)n1cccc(NC(=O)Cc2ccccc2)c1=O (stereo partly drawn) [Compound 28, (S)-5-Fluoro-4-oxo-3-[2-(2-oxo-3-phenylacetylamino-2H-pyridin-1-yl)-propionylamino]-pentanoic acid] | 5.30 to 6.30 |  | 5.70 to 6.30
C[C@@H](C(=O)NC(CC(=O)O)C(=O)CF)n1cccc(NC(=O)c2c(Cl)cccc2Cl)c1=O (stereo partly drawn) [Compound 27, (S)-3-{2-[3-(2,6-Dichloro-benzoylamino)-2-oxo-2H-pyridin-1-yl]-propionylamino}-5-fluoro-4-oxo-pentanoic acid] |  |  | > 6.30
C[C@@H](C(=O)NC(CC(=O)O)C(=O)CF)n1cccc(NC(=O)c2ccccc2)c1=O (stereo partly drawn) [Compound 26, (S)-3-[2-(3-Benzoylamino-2-oxo-2H-pyridin-1-yl)-propionylamino]-5-fluoro-4-oxo-pentanoic acid] |  |  | 5.70 to 6.30
CC[C@@H](C(=O)NC(CC(=O)O)C(=O)CF)n1cccc(NC(=O)Cc2cccc(C)c2)c1=O (stereo partly drawn) [Compound 34, (S)-5-Fluoro-4-oxo-3-{2-[2-oxo-3-(2-m-tolyl-acetylamino)-2H-pyridin-1-yl]-butyrylamino}-pentanoic acid] |  | 5.00 to 6.00 | > 6.30
